{"source": "patent US9999609B2", "about": "“Methods for treating or preventing fatigue” (SK Biopharmaceuticals Co., Ltd., priority 2009, dated 2018)", "format_in_all_cases": "in vivo", "key": {"[1]": {"test_system": "C57BL/6J, AKR/J and DBA/2J mice", "experiment": "Sleep onset and vigilance states in three inbred mouse strains after IP injection", "method": "At least 7 adult male mice of inbred strains C57BL/6J, AKR/J, and DBA/2J were recorded in 2 sessions of 72 continuous hours. The first 24 h in each session are considered as baseline followed the next day by the saline injection and the next day by 150 mg/kg of the test compound in the first session and 5 mg/kg d-amphetamine in the second session. The two sessions were separated by 7 days (wash-out period) and all injections were intraperitoneal (IP) and performed at light onset (9 am) in a volume of 5 ml/kg."}, "[2]": {"test_system": "adult human subjects with moderate or severe major depression without psychotic features", "experiment": "Randomized double-blind placebo- and active-controlled 6-week study in major depression", "conditions": "20 mg/day", "source_text": "This was a randomized, double-blind, parallel-group, active, and placebo-controlled, multicenter study conducted in the U.S. (23 centers) and Canada (4 centers). There were 2 phases: a pretreatment phase (screening/washout and a baseline visit) and a 6-week, double-blind treatment phase. Paroxetine, a positive control, was included to evaluate assay sensitivity. After washout (if needed) of prohibited substances, subjects were randomly assigned (1:1:1:1) to receive the test compound titrated to a target dose of 200 mg/day or 400 mg/day, matching placebo, or a fixed dose (20 mg/day) of paroxetine. Study drug was given twice daily for 6 weeks. Efficacy and safety were assessed weekly during the double-blind phase. Subjects completing the study underwent an Exit Interview (“Your Health and Well-Being”) and completed an Assessment of Benefits of Clinical-trial Drug-treatment (ABCD) questionnaire (U.S. sites only)."}, "[3]": {"test_system": "male adult Sprague Dawley rats", "experiment": "Sleep-wake organization (EEG/EOG/EMG) in rats after acute i.p. administration", "conditions": "rats, mean ± s.e.m of 8 rats; for Duration Active wake / Duration Deep sleep / Duration Intemediate stage / Duration Light sleep / Duration Passive wake / Duration REM sleep: 16 h recording"}, "[4]": {"test_system": "hypocretin cell ablated narcoleptic mice (prepororexin/ataxin-3 transgenic) and their littermate wild-type mice", "experiment": "Sleep parameters (EEG/EMG polygraph) in narcoleptic and wild-type mice after oral dosing", "source_text": "The polygraph signal (EEG and EMG) was captured with SleepSign (Kissei Comtech), and the sleep stage was visually scored with 10 sec epoch for wakefulness, non-REM sleep and REM sleep. Scoring criteria are: Wakefulness is characterized by desynchronized low-amplitude, mixed frequency (>4 Hz) EEG and high EMG activity. Rhythmic alpha (8-9 Hz) wave (with high EMG activities) may also appear. Non-REM is characterized by synchronized, high-amplitude, low-frequency (0.25-4 Hz) with reduced EMG activity (compared to wakefulness). EEG activity in REM sleep is similar to that in wakefulness, with desynchronized, mixed frequency low amplitude waves. Rhythmic alpha (8-9 Hz) wave with reduced EMG activities may also appear. […] is reduced even further and in many cases, completely absent. Same muscle twitching may be apparent in the EMG trace during REM sleep.\nThree drug doses of the test compound (50, 100 and 150 mg/kg PO) plus vehicle, were orally administered at ZT 2 (2 hours after light on) or ZT14 (2 hours after light off), and the effects on sleep were monitored for 6 hours after the drug administration (the sleep data was collected for 30 hours after the drug injection, and are available for further analysis). The doses for modafinil were 50 and 200 mg/kg PO (plus vehicle), and modafinil was also administered at ZT 2 and […]\nIf the polygraph signals of some mice were not sufficient to score the sleep stage with accuracy (especially bad EMG), data from these animals were excluded, and the minimum of 5 animals (except for the highest dose of the test compound in wild-type mice in dark period, n=4) were included for the data analysis and number of animals were indicated in the figures.\nEffects of test compound and modafinil on the amount of wake, non-REM sleep, REM sleep (cumulative seconds), number of episodes for each sleep stage during 6 hours, and mean wake/sleep-bout lengths (seconds) were analyzed in each animal and the mean of each parameter was calculated in each genotype. The effects of compounds on wake and sleep amounts are useful to evaluate the wake promoting potency, and the number of episodes for each sloop stage and the mean wake/sleep bout length are parameters for evaluating the sleep fragmentation. Amphetamine and modafinil, two main wake-promoting compounds currently used for the treatment of EDS associated with various etiologies (narcolepsy, idiopathic hypersomnia and secondary EDS), are known to increase wake time and prolong wake bout length in normal and EDS conditions.\nA comparison of the effects between hypocretin deficient and wild-type mice is very useful in determining the wake-promotion of the test compound is dependent on the availability of hypocretins, and if there is a possible change in the sensitivity of the receptive mechanisms of test compound in narcoleptic mice due to the hypocretin ligand deficiency."}}, "data": [{"smiles": "C[C@H](N)Cc1ccccc1", "note": "[d-amphetamine]", "values": [{"measurement": "amount of wakefulness compared with 150 mg/kg test compound", "setting": "[1]; 5 mg/kg IP", "value": "failed to induce the same amount of wakefulness as 150 mg/kg of test compound"}, {"measurement": "genotype effect on induced wakefulness (AK vs D2 mice)", "setting": "[1]; 5 mg/kg IP", "value": "genotype-dependent effect"}, {"measurement": "dose-response of induced wakefulness (sleep latency)", "setting": "[1]; C57BL/6J mice, 1, 2, 4, 5, 8 mg/kg IP", "value": "dose-dependent manner between 1 and 5 mg/kg"}]}, {"smiles": "Fc1ccc([C@@H]2CCNC[C@H]2COc2ccc3c(c2)OCO3)cc1", "note": "[paroxetine]", "values": [{"measurement": "Insomnia, treatment-emergent adverse event incidence", "setting": "[2]; 6 weeks", "value": 17, "unit": "%"}, {"measurement": "ABCD questionnaire items (of 51) with statistically significant superiority to placebo", "setting": "[2]; post hoc analyses", "value": 14, "unit": "items"}]}, {"smiles": "COC(=O)[C@H]1[C@@H](OC(=O)c2ccccc2)C[C@@H]2CC[C@H]1N2C", "note": "[Cocaine, cocaine]", "values": [{"measurement": "Duration Active wake", "setting": "[3]; 1 mg/kg i.p.", "value": "331.5 ± 41.5", "unit": "min"}, {"measurement": "Duration Deep sleep", "setting": "[3]; 1 mg/kg i.p.", "value": "162.9 ± 26.3", "unit": "min"}, {"measurement": "Duration Intemediate stage", "setting": "[3]; 1 mg/kg i.p.", "value": "6.7 ± 1.0", "unit": "min"}, {"measurement": "Duration Light sleep", "setting": "[3]; 1 mg/kg i.p.", "value": "293.2 ± 26.3", "unit": "min"}, {"measurement": "Duration Passive wake", "setting": "[3]; 1 mg/kg i.p.", "value": "69.8 ± 11.0", "unit": "min"}, {"measurement": "Duration REM sleep", "setting": "[3]; 1 mg/kg i.p.", "value": "84.2 ± 8.1", "unit": "min"}, {"measurement": "Latency ISWS", "setting": "[3]; 1 mg/kg i.p.", "value": "69.9 ± 51.2", "unit": "min"}, {"measurement": "Latency REM sleep", "setting": "[3]; 1 mg/kg i.p.", "value": "74.3 ± 12.1", "unit": "min"}, {"measurement": "Latency dSWS", "setting": "[3]; 1 mg/kg i.p.", "value": "79.3 ± 26.7", "unit": "min"}, {"measurement": "Shifts: Shift from ISWS to AW", "setting": "[3]; 1 mg/kg i.p.", "value": "184.1 ± 48.1", "unit": "number"}, {"measurement": "Shifts: Shift from ISWS to PW", "setting": "[3]; 1 mg/kg i.p.", "value": "128.6 ± 45.2", "unit": "number"}, {"measurement": "Shifts: Shift from REMS to AW", "setting": "[3]; 1 mg/kg i.p.", "value": "74.5 ± 21.5", "unit": "number"}, {"measurement": "Shifts: Shift from REMS to PW", "setting": "[3]; 1 mg/kg i.p.", "value": "17.0 ± 8.8", "unit": "number"}, {"measurement": "Shifts: Shift from dSWS to AW", "setting": "[3]; 1 mg/kg i.p.", "value": "10.1 ± 5.6", "unit": "number"}, {"measurement": "Shifts: Shift from dSWS to PW", "setting": "[3]; 1 mg/kg i.p.", "value": "66.6 ± 48.2", "unit": "number"}, {"measurement": "Duration Active wake", "setting": "[3]; 3 mg/kg i.p.", "value": "324.8 ± 18.3", "unit": "min"}, {"measurement": "Duration Deep sleep", "setting": "[3]; 3 mg/kg i.p.", "value": "172.6 ± 34.3", "unit": "min"}, {"measurement": "Duration Intemediate stage", "setting": "[3]; 3 mg/kg i.p.", "value": "5.7 ± 0.6", "unit": "min"}, {"measurement": "Duration Light sleep", "setting": "[3]; 3 mg/kg i.p.", "value": "303.2 ± 42.5", "unit": "min"}, {"measurement": "Duration Passive wake", "setting": "[3]; 3 mg/kg i.p.", "value": "66.7 ± 8.9", "unit": "min"}, {"measurement": "Duration REM sleep", "setting": "[3]; 3 mg/kg i.p.", "value": "76.7 ± 6.3", "unit": "min"}, {"measurement": "Latency ISWS", "setting": "[3]; 3 mg/kg i.p.", "value": "41.5 ± 9.2", "unit": "min"}, {"measurement": "Latency REM sleep", "setting": "[3]; 3 mg/kg i.p.", "value": "112.0 ± 12.2", "unit": "min"}, {"measurement": "Latency dSWS", "setting": "[3]; 3 mg/kg i.p.", "value": "68.6 ± 7.6", "unit": "min"}, {"measurement": "Shifts: Shift from ISWS to AW", "setting": "[3]; 3 mg/kg i.p.", "value": "218.5 ± 50.6", "unit": "number"}, {"measurement": "Shifts: Shift from ISWS to PW", "setting": "[3]; 3 mg/kg i.p.", "value": "142.2 ± 48.5", "unit": "number"}, {"measurement": "Shifts: Shift from REMS to AW", "setting": "[3]; 3 mg/kg i.p.", "value": "56.0 ± 16.4", "unit": "number"}, {"measurement": "Shifts: Shift from REMS to PW", "setting": "[3]; 3 mg/kg i.p.", "value": "10.7 ± 6.9", "unit": "number"}, {"measurement": "Shifts: Shift from dSWS to AW", "setting": "[3]; 3 mg/kg i.p.", "value": "10.2 ± 6.7", "unit": "number"}, {"measurement": "Shifts: Shift from dSWS to PW", "setting": "[3]; 3 mg/kg i.p.", "value": "64.5 ± 42.6", "unit": "number"}, {"measurement": "Duration Active wake", "setting": "[3]; 10 mg/kg i.p.", "value": "347.3 ± 16.5", "unit": "min"}, {"measurement": "Duration Deep sleep", "setting": "[3]; 10 mg/kg i.p.", "value": "171.9 ± 23.8", "unit": "min"}, {"measurement": "Duration Intemediate stage", "setting": "[3]; 10 mg/kg i.p.", "value": "6.3 ± 1.1", "unit": "min"}, {"measurement": "Duration Light sleep", "setting": "[3]; 10 mg/kg i.p.", "value": "294.6 ± 24.4", "unit": "min"}, {"measurement": "Duration Passive wake", "setting": "[3]; 10 mg/kg i.p.", "value": "55.0 ± 10.4", "unit": "min"}, {"measurement": "Duration REM sleep", "setting": "[3]; 10 mg/kg i.p.", "value": "74.7 ± 7.5", "unit": "min"}, {"measurement": "Latency ISWS", "setting": "[3]; 10 mg/kg i.p.", "value": "101.8 ± 6.9", "unit": "min"}, {"measurement": "Latency REM sleep", "setting": "[3]; 10 mg/kg i.p.", "value": "192.1 ± 18.5", "unit": "min"}, {"measurement": "Latency dSWS", "setting": "[3]; 10 mg/kg i.p.", "value": "138.8 ± 8.7", "unit": "min"}, {"measurement": "Shifts: Shift from ISWS to AW", "setting": "[3]; 10 mg/kg i.p.", "value": "201.2 ± 53.6", "unit": "number"}, {"measurement": "Shifts: Shift from ISWS to PW", "setting": "[3]; 10 mg/kg i.p.", "value": "132.6 ± 48.2", "unit": "number"}, {"measurement": "Shifts: Shift from REMS to AW", "setting": "[3]; 10 mg/kg i.p.", "value": "52.3 ± 16.5", "unit": "number"}, {"measurement": "Shifts: Shift from REMS to PW", "setting": "[3]; 10 mg/kg i.p.", "value": "9.2 ± 5.8", "unit": "number"}, {"measurement": "Shifts: Shift from dSWS to AW", "setting": "[3]; 10 mg/kg i.p.", "value": "10.4 ± 6.2", "unit": "number"}, {"measurement": "Shifts: Shift from dSWS to PW", "setting": "[3]; 10 mg/kg i.p.", "value": "37.6 ± 23.8", "unit": "number"}]}, {"smiles": "NC(=O)C[S+]([O-])C(c1ccccc1)c1ccccc1", "note": "(stereo not shown) [modafinil]", "values": [{"measurement": "effect on wakefulness", "setting": "[4]; active (dark) period, ZT14, PO", "value": "dose-dependently increased wakefulness"}, {"measurement": "wake amount in narcoleptic mice relative to wild-type baseline", "setting": "[4]; active period, 200 mg/kg PO", "value": "did not bring the wake amount to that of the wild-type baseline levels"}, {"measurement": "dose of test compound whose wake promoting effect corresponds to 200 mg/kg of modafinil", "setting": "[4]; resting period, PO", "value": "~50", "unit": "mg/kg"}, {"measurement": "effect on REM sleep", "setting": "[4]; resting period, PO", "value": "did not strongly reduce REM sleep"}, {"measurement": "wake-promoting effects", "setting": "[4]; resting period, wild-type and hypocretin-deficient narcoleptic mice, PO", "value": "modest"}]}]}
